How the values were obtained:
[1] = 10 min mock treatment in liquid tissue-simulating phantom with moving light source; format: physicochemical; settings: 3 mg kg^−1 Photofrin, 0-70 mW cm^−2
Procedure: Excitation light intensity varies vastly during PDT as the light source was constantly circulated around in the lung cavity by the physician. To test the performance of the PDT dosimetry system in measuring Photofrin fluorescence with varying excitation light intensities, a 10 min mock treatment was performed using liquid tissue-simulating phantom (μa=0.3 cm^−1 and μ′s=9.6 cm^−1) with known Photofrin concentration of 3 mg kg^−1 and a moving light source. The fluorescence spectra were measured at the surface of the phantom using isotropic detectors as described above. The treatment started with the treatment light wand positioned at a fixed distance above the phantom for 1 min. The average fluence rate measured on the surface was 50 mW cm^−2. Then the light wand was moved randomly over the top of the phantom to simulate the variations in the light fluence rate due to the movement of treatment light source in the pleural cavity during PDT treatment. […] The Photofrin concentrations obtained from measured Photofrin fluorescence spectra using data analysis method described above are plotted as a function of treatment time as shown in FIG. 4B. Each data point represents Photofrin concentration obtained from one fluorescence spectrum and the solid lines represent the average Photofrin concentration calculated for every 1 min of data. […]

[2] = Clinical ROSED during Photofrin-mediated pleural PDT (light fluence, Photofrin concentration, DCS blood flow); format: in vivo, human
Procedure: Patients with pathologically confirmed epithelioid malignant pleural mesothelioma were enrolled in a phase II randomized clinical trial of extended pleurectomy/decortication with or without Photofrin-mediated PDT. Photofrin (provided by Pinnacle Biologics, Chicago, IL, USA) was administered at 2 mg per kg of body weight as an intravenous infusion approximately 24 hours prior to the anticipated time of intra-operative PDT. After surgically resecting all gross disease, PDT treatment was performed with 630 nm light to a total fluence of 60 J/cm^2 as previously described (24-28). Briefly, the pleural cavity was filled with diluted Intralipid solution to aid with light scattering and 60 J/cm^2 630 nm light was delivered to the pleural cavity via an optical fiber inserted into modified endotracheal tube filled with 0.1% Intralipid. Homogeneous light delivery is accomplished by continuously moving the light source around the pleural cavity b with continuous feedback monitoring of light fluence rate and cumulative fluence provided by 8 isotropic detectors (Medlight, Switzerland) sutured to the chest wall. Four of the eight isotropic detectors were used to monitor the light dose and Photofrin fluorescence simultaneously. Long pass filters (Semrock, Inc., Rochester, NY, USA) were used to block the treatment light before the fluorescence was recorded by 4 single channel spectrometers (Exemplar, B&W Tek, Inc., Newark, DE, USA).
PDT dose dosimeter consists of photodiodes for light fluence rates measurements and spectrometers for fluorescence measurements. More details about PDT dosimeter and the quantification of absolute Photofrin concentration from measured fluorescence spectra can be found in (19).
Measurement of blood flow during clinical PDT: DCS monitoring of tissue blood flow during pleural PDT was implemented using a custom built DCS contact probe as shown in FIG. 15B. The contact probe consists of a side-firing multimode source fiber and three single mode detector fibers polished at 45°. Light from a continuous wave 785-nm laser with long coherence length was delivered through the source fiber, and the reflected diffuse light was collected using the detector fibers located at 0.4, 0.7 and 1.0-cm from the source fiber. Three single photon counting avalanche photodiodes were used to detect the diffuse light in parallel. The DCS probe was mounted onto a clear acrylic rectangle pad with small holes at each corner that allowed it to be sutured adjacent to one of the isotropic detectors measuring light fluence rate and photosensitizer fluorescence data. Tissue blood flow was measured continuously throughout the PDT treatment. The study started with one DCS contact probe for the first 2 patients, and it was later expanded for the next 5 patients to include the second DCS contact probe to enable simultaneous measurements of blood flow at two different pleural sites.
Calculation of [ROS]rx using ROSED: The PDT process is described by a set of kinetic equations which can be simplified to compute the production of [ROS]rx (4, 8, 9, 13). These equations are dependent on the temporal and spatial distribution of light fluence rate (ϕ), photosensitizer concentration ([S0]), ground state oxygen concentration ([^3O2]), oxygen supply rate (g), and the photosensitizer-specific reaction-rate parameters (δ, β, σ, and ξ). The relevant equations are: […]
Since Photofrin concentration and tissue oxygen were measured in this study, only Eq. (A3) is needed to calculate for [ROS]rx. For the calculation of [ROS]rx, the term on the right-hand side of Eq. (A3) is integrated over the time course of PDT treatment using the measured value of [^3O2], [S0], and light fluence rate. In vivo light fluence rate distribution can be estimated from the in-air light fluence rate using a 6-parameter analytic expression (29). Tissue optical properties needed for this calculation were obtained from diffuse reflectance measurements using the multi-fiber contact probe. […]

[3] = average of 12 sites, 7 patients

photobleaching of Photofrin during mock treatment [1]: negligible photobleaching
photobleaching (mean Photofrin concentrations during PDT) ([2]; all measurement sites and all patients): no sign of photobleaching
mean Photofrin concentration of all pleural tissues [2, 3]: 6.2 ± 2.1 mg/kg
[Photofrin] ([2]; mean corrected concentration per patient and pleural site, 2 mg per kg i.v. about 24 h before PDT, pleural apex): 3.9 mg/kg
Substance: Photofrin
range of calculated [ROS]rx ([2]; 12 sites, 7 patients): 0.31−1.17 mM
[ROS]rx ([2]; at surface, per patient and pleural site, ROSED with blood-flow-derived oxygen, pleural apex): 0.59 mM
mean (standard deviation) calculated [ROS]rx [2, 3]: 0.59 ± 0.25 mM

— US12324927B2, “Methods and systems for photodynamic therapy calculations” (THE TRUSTEES OF THE UNIVERSITY OF PENNSYLVANIA, priority 2018, dated 2025)
